These results are taken from patent US10669285B2, “Condensed [1,4] diazepine compounds as autotaxin (ATX) and lysophosphatidic acid (LPA) production inhibitors” (Hoffmann-La Roche Inc., priority 2014, dated 2020).

The structures appear in SMILES notation.

The experiment concerns the target ATX (human His-tagged) (Homo sapiens (Human), UniProt Q13822). Put plainly: Human ATX enzyme inhibition assay (fluorescence quenching, MR121 substrate). The note with it: inhibitory activity against ATX; 30 nM ATX, 1 μM MR121 substrate, 30° C. The experiment is classed as biochemical. The method, then: Human ATX Enzyme Inhibition Assay
ATX inhibition was measured by a fluorescence quenching assay using a specifically labeled substrate analogue (MR121 substrate). To obtain this MR121 substrate, BOC and TBS protected 6-amino-hexanoic acid (R)-3-({2-[3-(2-{2-[2-(2-amino-ethoxy)-ethoxy]-ethoxy}-ethoxy)-propionylamino]-ethoxy}-hydroxy-phosphoryloxy)-2-hydroxy-propyl ester (Ferguson et al., Org Lett 2006, 8 (10), 2023) was labeled with MR121 fluorophore (CAS 185308-24-1, 1-(3-carboxypropyl)-11-ethyl-1,2,3,4,8,9,10,11-octahydro-dipyrido[3,2-b:2′,3′-i]phenoxazin-13-ium) on the free amine of the ethanolamine side and then, after deprotection, subsequently with tryptophan on the side of the aminohexanoic acid.
Assay working solutions were made as follows:
Assay buffer (50 mM Tris-HCl, 140 mM NaCl, 5 mM KCl, 1 mM CaCl2, 1 mM MgCl2, 0.01% Triton-X-100, pH 8.0;
ATX solution: ATX (human His-tagged) stock solution (1.08 mg/mL in 20 mM bicine, pH 8.5, 0.15 M NaCl, 10% glycerol, 0.3% CHAPS, 0.02% NaN3), diluted to 1.4-2.5× final concentration in assay buffer;
MR121 substrate solution: MR121 substrate stock solution (800 μM MR121 substrate in DMSO), diluted to 2-5× final concentration in assay buffer.
Test compounds (10 mM stock in DMSO, 8 μL) were obtained in 384 well sample plates (Corning Costar #3655) and diluted with 8 μL DMSO. Row-wise serial dilutions were made by transferring 8 μL cpd solution to the next row up to […]. The compound and control solutions were mixed five times and 2 μL were transferred to 384 well assay plates (Corning Costar #3702). Then, 15 μL of 41.7 nM ATX solution was added (30 nM final concentration), mixed five times and then incubated for 15 minutes at 30° C. 10 μL of MR121 substrate solution was added (1 μM final concentration), mixed 30 times and then incubated for 15 minutes at 30° C. Fluorescence was then measured every 2 minutes for 1 hour (Perkin Elmer plate: vision multimode reader); light intensity: 2.5%; exp. time: 1.4 sec, Filter: Fluo_630/690 nm) and IC50 values were calculated from these readouts.
For the compound `CC(C)(C)c1cc(C#N)ccc1OCC(=O)N1CCc2cc(C(=O)N3CCc4[nH]nnc4C3)nn2CC1` [Example 17, 3-tert-Butyl-4-[2-oxo-2-[2-(1,4,6,7-tetrahydrotriazolo[4,5-c]pyridine-5-carbonyl)-4,5,7,8-tetrahydropyrazolo[1,5-d][1,4]diazepin-6-yl]ethoxy]benzonitrile], the IC50 was determined as 10 nM. For `Cc1cc(OC(F)(F)F)ccc1COC(=O)N1CCc2cc(C(=O)N3CCc4[nH]nnc4C3)nn2CC1` [Example 39, 2-methyl-4-(trifluoromethoxy)benzyl 2-(4,5,6,7-tetrahydro-1H-[1,2,3]triazolo[4,5-c]pyridine-5-carbonyl)-7,8-dihydro-4H-pyrazolo[1,5-d][1,4]diazepine-6(5H)-carboxylate] the value was 14 nM. Next, `O=C(OCc1ccc(OC(F)(F)F)c(F)c1)N1CCc2nc(C(=O)N3CCc4[nH]nnc4C3)nn2CC1` [Example 36, [3-fluoro-4-(trifluoromethoxy)phenyl]methyl 2-(1,4,6,7-tetrahydrotriazolo[4,5-c]pyridine-5-carbonyl)-5,6,8,9-tetrahydro-[1,2,4]triazolo[1,5-d][1,4]diazepine-7-carboxylate]: 6 nM; `O=C(OCc1ccccc1)N1CCc2cc(C(=O)N3CCc4[nH]nnc4C3)nn2CC1` [Example 1, Benzyl 2-(1,4,6,7-tetrahydrotriazolo[4,5-c]pyridine-5-carbonyl)-4,5,7,8-tetrahydropyrazolo[1,5-d][1,4]diazepine-6-carboxylate]: 158 nM.

The IC50 is the concentration at which inhibition is half-maximal.
